Consider two compounds from US20240002429A1, “PRODRUG OF 5a-HYDROXY-6ß-[2-(1H-IMIDAZOL-4-YL)ETHYLAMINO]CHOLESTAN-3ß-OL AND PHARMACEUTICAL COMPOSITIONS COMPRISING SAME FOR USE IN THE TREATMENT OF CANCER” (priority 2020, published 2024).

A short description of data set [1]: Pharmacokinetic study of DX107 (LC/MS in plasma). Type of data set: in vivo. Conditions: rat, oral 50 mg/kg, administered compound assayed; for Area under curve: 0-72 h. An excerpt:
The following study is determination by LC/MS in plasma of the various molecules over 3 days (11 measurement points at the end). The graphs are always presented in comparison with DX101, which is the reference. […]

The target in data set [2] is T1, cholesterol epoxide hydrolase (ChEH) (Homo sapiens, UniProt Q15125).
T1 construct: endogenous in cells; host or cells: MCF-7
T1 sequence (Q15125 whole entry): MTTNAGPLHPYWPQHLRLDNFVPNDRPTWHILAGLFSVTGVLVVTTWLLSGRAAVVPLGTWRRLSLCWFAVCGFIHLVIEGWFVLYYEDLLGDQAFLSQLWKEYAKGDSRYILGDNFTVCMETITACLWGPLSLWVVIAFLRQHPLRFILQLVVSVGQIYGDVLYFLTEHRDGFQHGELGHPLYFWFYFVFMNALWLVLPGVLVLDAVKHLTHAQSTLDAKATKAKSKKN
Briefly: Activity of cholesterol epoxide hydrolase (ChEH) in MCF-7 cells, [14C]5,6α-EC metabolization by TLC. It is filed as cell-based. Conditions: MCF-7, 1 μM, 24 h, [14C]5,6α-EC 0.6 μM. An excerpt:
The compounds 5,6α-epoxycholesterol (5,6α-EC) and 5,6β-epoxycholesterol (5,6β-EC) are oxysterols involved in the anticancer pharmacology of tamoxifen, a widely used antitumor drug. They are both metabolized in cholestan-3β,5α,6β-triol (CT) by the enzyme cholesterol-5,6-epoxide hydrolase (ChEH), and CT is metabolized by the enzyme HSD11B2 (11β-hydroxysteroid dehydrogenase 2) to 6-oxo-cholestan-3β,5α-diol (OCDO), an oncosterone tumor promoter.
MCF-7 cells are in a cell culture medium identical to example 20 and are seeded in 6-well plates at 150000 cells per well with 3 wells per treatment condition. 24 h after seeding, the MCF-7 cells are treated with [^14C]5,6α-EC (stock solution 1000×: 0.6 mM; 20 μCi/μmol; final concentration 0.6 μM) alone or in combination with tamoxifen (tam). Tamoxifen is used as positive control of the study compounds. The treatment with the compound according to the invention is carried out at a concentration of 1 μM.
After 24 hours of treatment, the media are collected and lipid extracts are prepared from the cell pellets by extraction with 100 μL of chloroform, 400 μL of methanol and 300 μL of water. The lipid extracts are analyzed by thin-layer chromatography (TLC) using ethyl acetate (EtOAc) as eluent. The analysis is carried out using a plate reader and then by autoradiography.

Data set [3] has as its system BT-474 human mammary tumor cells. Put plainly: Cytotoxicity on BT-474 cells, MTT. Type of data set: cell-based. The note with it: BT-474, MTT, 48 h; for Mean LogIC50 (±SEM): log of IC50 in μM; for IC50: Homo sapiens, read-out: IC50. The procedure: Cellular viability is measured by three different methods. For the first method, MTT labeling is carried out at 48 hours. This test is based on the use of the tetrazolium salt MTT (3-(4,5-dimethylthiazol-2-yl)-2,5-diphenyltetrazolium bromide). The tetrazolium is reduced by mitochondrial succinate dehydrogenase of active living cells, to formazan, a precipitate of a violet color. The quantity of precipitate formed is proportional to the quantity of living cells but also to the metabolic activity of each cell. […] After 48 hours, the medium is aspirated, and the cells are incubated with MTT (0.5 mg/ml in culture medium) for about 3 hours. The MTT solution is aspirated and the violet crystals are dissolved in dimethylsulfoxide (DMSO). The OD (optical density) is measured at 550 nm. The percentage viability is then determined in each well relative to the CTL and the IC50 (concentration for which there are still 50% of living cells) is determined for each molecule with Prism software using the nonlinear regression straight line (log(inhibitor) vs. Response).
(§1) The cellular viability tests were also carried out on BT-474 human mammary tumor cells (characterized as being positive triples HER2+, ER+, PR+). The BT-474 cells are in a cell culture medium identical to the preceding example and are seeded in 24-well plates at 70 000 cells per well, for determination of cellular viability using trypan blue, or in 96-well plates at 13 000 cells per well for determination of cellular viability using the MTT or LDH assay. After 96 hours (h) of culture in normal conditions, i.e. in an incubator at a temperature of 37° C. at 5% CO2, the BT-474 cells are treated for 48 h with DX101, DX107, and DX113 at 100 nM, 1 μM, 2.5 μM and 10 μM. A control is also carried out using the protocol described above but without treatment with the molecules DX101, DX107, DX113, DX117, DX119, DX121 or DX131.
(§2) After trypsin digestion for 10 minutes at 37° C., cell survival was quantified, also by a trypan blue assay with automatic counting with the Biorad TC20 equipment (TC20™ Automated Cell Counter). The trypan blue assay is based on the cell membrane integrity, which is broken in the dead cells. Trypan blue stains the dead cells blue. The Biorad TC20 cell counter counts the proportion of blue cells and non-blue cells, relative to the cell percentages. The percentage viability is then determined in each well relative to the untreated cells and the IC50 is determined as explained in the preceding example. The percentage viability of the BT-474 cells was determined using the MTT and LDH assay, carried out as described in the preceding example.

Data set [4] has the same test system. Put plainly: Cytotoxicity on BT-474 cells, LDH. It is filed as cell-based. Conditions: BT-474, LDH, 48 h; for Mean LogIC50 (±SEM): log of IC50 in μM; for IC50: Homo sapiens, read-out: IC50. The procedure:
For the second method, the percentage viability is determined using assay of the activity of the enzyme LDH (lactate dehydrogenase) in the cellular supernatants using the kit non radioactive cytotoxicity assay kit (Promega). LDH is an enzyme released in the supernatant of dead cells. The higher the LDH activity in the supernatant, the greater is the cell death. In this enzyme test, the LDH released converts a violet tetrazolium salt to formazan, of red color, absorbing at 490 nm. The intensity of the red color is proportional to the number of dead cells. After 48 h of treatment, the supernatants are transferred to a new 96-well plate and are incubated for 30 minutes in the presence of the substrate mix at room temperature. The reaction is stopped using the stop buffer and the absorbance is determined at 490 nm. The percentage cell death is determined here using a control 100% of maximum activity of LDH (carried out with untreated cells incubated in the presence of the lysis solution for 45 minutes at 37° C. just before adding the substrate mix), and the cellular viability in each well is then deduced from this percentage. IC50 is then determined as explained in the preceding paragraph.
as §1, §2

As usually defined, the IC50 is the point on the concentration scale where inhibition reaches its midpoint. As for `CC(C)CCC[C@@H](C)[C@H]1CC[C@H]2[C@@H]3C[C@@H](NCCc4c[nH]cn4)[C@@]4(O)C[C@@H](O)CC[C@]4(C)[C@H]3CC[C@]12C` [DX101, 5α-hydroxy-6β-[2-(1H-imidazol-4-yl)-ethylamino]-cholestan-3β-ol, reference compound], in data set [1], the Concentration max is 0.14 µM and the Area under curve is recorded as 143297. In addition, in data set [2], the “inhibition of ChEH activity” value is “almost total (trace of CT)”. Moreover, in data set [3], the “Mean LogIC50 (±SEM)” value was found to be 0.85 ± 0.02 and the IC50 was determined as 7.06 µM. In data set [4], the “Mean LogIC50 (±SEM)” value is on record as 0.99 ± 0.06 and the IC50 is 9.72 µM.
In data set [1], `CCC(=O)O[C@H]1CC[C@]2(C)[C@H]3CC[C@]4(C)[C@@H]([C@H](C)CCCC(C)C)CC[C@H]4[C@@H]3C[C@@H](NCCc3c[nH]cn3)[C@@]2(O)C1` [DX107, 5α-hydroxy-6β-[2-(1H-imidazol-4-yl)ethylamino]cholestan-3β-yl propionate] yielded a Concentration max of 0.142 µM and an Area under curve of 89733. In addition, in data set [2], the “inhibition of ChEH activity” value is “inhibition of ChEH is observed relative to the control (1), but it is less than the positive control (2)”. Further, in data set [3], the “Mean LogIC50 (±SEM)” value is listed as 1.08 ± 0.04 and the half-maximal inhibitory concentration (IC50) was 11.9 µM. Also, in data set [4], the “Mean LogIC50 (±SEM)” value is 0.95 ± 0.08 and the IC50 is 8.92 µM.
